Series [1] has as its system co-culture of rat brain endothelial 4 (RBE4) and C6 astrocytoma cells. The experiment in a line: In vitro blood-brain barrier Transwell permeation assay. It is filed as in vitro ADME. The conditions noted are these: 10 μM, 0, 3, 6 and 24 hours, UV 600 nm, n=3. The protocol:
Transwell Permeable Supports (CORNING) with a 0.4 μm pore size were purchased to investigate the permeability of MB nanoparticles across the blood-brain barrier (BBB) (FIG. 5). Each side was coated with 0.1% rat tail collagen I solution diluted from the purchased 100 mg solution (Collagen I, rat tail, 100 mg, BD BIOSCIENCES), left under the hood to adhere to the support for 1 hour, and washed with […] of 1×PBS after aspiration of the remaining collagen solution. The media used was a 1:1 solution of Ham's F10:MEM media (CELLGRO) supplemented with 10% fetal bovine serum (FBS) (INVITROGEN), 1% penicillin and streptomycin (CELLGRO), 0.4 mL of 1 ng/mL human recombinant diluted basic fibroblast growth factor (bFGF) (BD Biosciences), 5 mL of HEPES buffer (FISHER), and 2 mL of a 200 mM stock of L-glutamine (MEDIATECH). 1.5 mL of media was added surrounding the support, and 0.5 mL was added inside the support. This was left to incubate in the incubator (37° C. and 5% CO2) for 24 hours.
After 24 hours, the media was aspirated from the plates. […]
Subsequently, the media was aspirated and replaced with equal amounts of 1% FBS experimental media. […] The samples were quantified by UV spectrometry in the SYNERGY H4 plate reader (BIOTEK INSTRUMENTS Inc.) at a wavelength of 600 nm. Data was quantified in triplicates and averaged (n=3).

In series [2] the test system is endogenous Tau in human neuroblastoma SHSY-5Y cells. The series can be described thus: Tau levels by immunoblotting in SHSY-5Y cells. It is filed as cell-based. The note with it: 5 μM and 10 μM, 24 hours, immunoblot. The protocol:
(§1) Endogenous Tau expressing human neuroblastoma SHSY5Y cells and Hela cells stably overexpressing wild-type human tau were maintained in OptiMEM media supplemented with fetal bovine serum and antibiotic solution as described previously. In six-well plates, cells were treated with control or MB-NPs for 24 hours. Cells were harvested and processed for immunoblotting as described previously.
(§2) To test the functionality of newly generated NPs, two different cell culture-based AD models were utilized. Endogenously tau expressing SHSHY neuronal cells and stably tau overexpressing HeLa cells were treated with 5 μM and 10 μM of MB-NPs, coated MB-NPs, control NPs, vehicle, and/or drug MB-solution for 24 hours. Cells were harvested, and samples were analyzed for tau levels by immunoblotting (FIG. 4).
A general note: In western blotting, separated proteins are transferred to a membrane and probed.

The test system of series [3] is human Tau stably over-expressed in HeLa cells. The experiment in a line: Tau levels by immunoblotting in HeLa cells overexpressing tau. It is filed as cell-based. The conditions noted are these: HeLa cells over-expressing tau, 5 μM and 10 μM, 24 hours, immunoblot. The procedure:
as §1, §2

SMILES strings stand for the structures.

Take `CN(C)c1ccc2nc3ccc(=[N+](C)C)cc-3sc2c1` [MB solution, Methylene blue]: in series [1], the “Permeation across simulated BBB (in words)” value is on record as “remained relatively constant”. Besides, the “Reduction in tau level (in words)” value in series [2] and in series [3] was “reduce tau levels slightly higher at 10 μM compared to 5 μM” throughout.
